In US20220110331A1, “COMPOSITION FOR PROMOTING GROWTH OF EFFECTIVE MICROORGANISM AND CONTROLLING PLANT DISEASE USING PREBIOTICS, AND USE THEREOF” (priority 2018, published 2022):

Experiments:
[1] = system: Streptomyces badius SP6C4 strain; test: Amino acid preference of effective microorganism on Biolog PM3B nitrogen source plate (redox dye colour); type: cell-based; conditions: 72 hours at 28° C., then dye and culture at 37° C. for 24 and 48 hours, naked eye
Description: Single colony of Streptomyces badius SP6C4 strain with deposit number of KCCM11703P was inoculated by streaking on MS medium (containing 20 g of mannitol, 20 g of soya, and 20 g of agar in 1 liter distilled water) and cultured for 7 days at 28° C. […] Thus-completed spore stock was diluted in sterile water, and, after adjusting the concentration to OD595 of 0.2±0.02, carrageenan stock (0.2% carrageenan and 50 mL distilled water) was prepared. The spore stock (1.5 mL) was admixed with 0.2% carrageenan stock (13.5 mL) and then the mixture (100 μl) was aliquoted onto a biolog plate (PM3B MICROPLATE™ Nitrogen Sources) followed by sealing the plate with a transparent film sheet. After 72 hours at 28° C., Redox dye mix MA (Biolog, Hayward, Calif.) was aliquoted to each well (10 μl per well) and sealed with a transparent film and a wrap to block the incorporation of CO2 from outside. Culture was carried out at 37° C. for 24 hours and 48 hours, respectively. […] Determination was made based on the assumption that stronger purple color corresponds to higher growth of the microorganism.

bloom blight = test: Strawberry field test, incidence rate of bloom blight; type: in vivo, Cladosporium cladosporioides; conditions: foliar application of 2% amino acid, 8 treatments with interval of 2 weeks, non-treatment group up to 50%
Description: (§1) Specifically, the test was carried out with an interval of 2 weeks during the cultivation period of strawberry. Length of 5M was set as a single section and foliar application was performed for three sections. For each section, 100 strawberries were randomly selected and incidence rate of the disease was determined. As a treatment process, each amino acid was diluted to concentration of 2% in 15 liter distilled water, and the mixture (5 liter) was applied to each section. The treatment was carried out 8 times with an interval of 2 weeks.

gray mold = test: Strawberry field test, incidence rate of gray mold; type: in vivo, Botrytis cinerea; conditions: foliar application of 2% amino acid; for incidence rate of gray mold: 8 treatments with interval of 2 weeks, non-treatment group 35%; for incidence rate of gray mold (in words): 8 treatments, decreased in order of glutamic acid, proline, tryptophan
Description: as §1

Fusarium oxysporum [2] = test: Wilt disease control after treating underground part of tomato plant with glutamic acid; type: in vivo; conditions: 2% glutamic acid solution 20 mL applied 2 times to tomato plant
Description: To a tomato plant grown to have aboveground part of 8 to 10 cm, 2% glutamic acid solution was applied 2 times, in an amount of 20 mL with an interval of 5 days. […] A wound was created, by using a 5 mL tip, on the underground part of plant which has been treated twice with glutamic acid for 10 days, and then the spore suspension (10 mL) was applied to a pot with diameter of 9 cm. The plant inoculated with the pathogen was transferred to a plant growth chamber which is set at 28° C. for 16 hours of light period and 25° C. for 8 hours of dark period. Then, the incidence rate of disease was determined with an interval of 1 week. As a control, a group treated only with the pathogen and a plant not treated with any were tested, each repeated 5 times.

[3] = system: Streptomyces badius SP6C4 strain; test: Growth promotion of effective microorganism by amino acids (OD600); type: cell-based; conditions: fifth day of culture, 10 μl of amino acids at 2% added, 28° C.; basal medium control OD600 0.5
Description: To 10 μl of a spore stock of Streptomyces badius SP6C4 strain (10^5 cfu/mL), 80 μl of sterile water was added. After mixing with 10 μl of amino acids at concentration of 2%, the strain was cultured in a shaking incubator at a condition of 28° C. Growth of SP6C4 strain was examined by OD600 for 5 days with an interval of 24 hours.

[4] = system: Streptomyces badius SP6C4 strain; test: Maintenance of density of effective microorganism on strawberry flowers after amino acid treatment (qPCR of lanM gene); type: in vivo; conditions: continuously maintained except the first treatment out of 8 treatments
Description: To determine whether or not the density of effective microorganism is maintained even after a treatment of the amino acids, three strawberry flowers were collected, 3 times repeatedly, in each treatment period during which the test of inhibiting gray mold by the strawberry field test of Example 3 is carried out. After transfer to the lab under cold storage, 3 flowers were added to 30 mL of 1×PBS buffer and subjected to an ultrasonication treatment for 10 minutes. 3 mL of the supernatant was centrifuged for 10 minutes at a rate of 13,000 rpm, 1 mL of the resulting supernatant was discarded, and the pellet was dissolved in the remaining supernatant (2 mL). 500 μl of the mixture was admixed with 500 μl CTAB buffer followed by DNA purification. Each DNA was subjected to qPCR (quantitative polymerase chain reaction) by using lanM gene specific primers of Streptomyces badius SP6C4 strain (forward direction: 5′-gtacggatctgcaccacga-3′ (SEQ ID NO: 1), reverse direction: 5′-[…]-3′ (SEQ ID NO: 2)).

Fusarium oxysporum [5] = test: Wilt disease control after coating tomato seeds with glutamic acid; type: in vivo; conditions: tomato seeds coated with 2% glutamic acid and 0.1% CMC, then pathogen; Day 3 (Early time) and Day 10 (Late time); pathogen only about 50% and 100%
Description: By using a concentrate of glutamic acid (20% (w/v)) and a concentrate of CMC (carboxyl methyl cellulose) (1% (w/v)) as a spreader, a mixture solution was prepared such that they have concentration of 2% and 0.1%, respectively. Forty to fifty tomato seeds of which surfaces have been sterilized with 70% (v/v) ethanol and 1% (v/v) sodium hypochlorite were added to 1 mL of the mixture solution and dried for 12 hours in a sterile bench at room temperature condition. After that, the coated seeds were planted to a square pot (3 cm×3 cm), 1 to 2 seeds per pot. Fusarium oxysporum spores as wilt pathogen were added in an amount of 3 mL with concentration of 10^5×1.0 CFU/mL. The treatment group obtained after completing pathogen inoculation to the seeds was transferred to a plant growth chamber which is set at 28° C. for 16 hours of light period and 25° C. for 8 hours of dark period. On Day 3 (Early time) and Day 10 (Late time) after transfer to a plant growth chamber, the incidence rate of wilt disease was examined. As a control, a non-treatment group and a group treated only with the pathogen were examined, each repeated 10 times.

C[C@H](N)C(=O)O [alanine]
color change with Redox dye (stronger purple color corresponds to higher growth of the microorganism) [1]: darkest purple color

N=C(N)NCCC[C@H](N)C(=O)O [arginine]
color change with Redox dye (stronger purple color corresponds to higher growth of the microorganism) [1]: darkest purple color

NC(=O)C[C@H](N)C(=O)O [asparagine, reference compound]
incidence rate of bloom blight (bloom blight): up to 40%
incidence rate of gray mold (gray mold): about 25%

N[C@@H](CCC(=O)O)C(=O)O [glutamic acid]
incidence rate of disease (wilt) (Fusarium oxysporum [2]; for 2 weeks after the initial pathogen treatment): no significant difference
incidence rate of disease (wilt) (Fusarium oxysporum [2]; from the week 4, pathogen only 100%): less than 15%
OD600 (growth of SP6C4 strain) [3]: 1.8
color change with Redox dye (stronger purple color corresponds to higher growth of the microorganism) [1]: darkest purple color
microorganism concentration (SP6C4 on strawberry flowers) [4]: ≥ 10^5 cfu/mL
incidence rate of wilt disease (Fusarium oxysporum [5]): wilt disease does not occur
incidence rate of gray mold (gray mold): less than 15%

O=C(O)[C@@H]1CCCN1 [proline]
incidence rate of gray mold (in words) (gray mold): incidence rate has decreased

N[C@@H](Cc1c[nH]c2ccccc12)C(=O)O [tryptophan]
incidence rate of gray mold (in words) (gray mold): incidence rate has decreased
